Reference: patent US8029832B2, “Obesity and metabolic syndrome treatment with tanshinone derivatives which increase metabolic activity” (priority 2003, dated 2011)

Tests used:
AMPK = AMPK activity of double or triple combinations of tanshinone derivatives in muscle cells; type: cell-based; conditions: combinations of the four tanshinone derivatives
Method: Using muscle cells, this example was carried out to confirm synergistic effects of AMPK activity with respect to the combination ratio between derivatives, which contained tanshinone I, tanshinone IIA, cryptotanshinone and 15,16-dihydrotanshinone I, as main ingredients. That is, we have attempted to confirm inter-complementary functions between derivatives according to gene expression as shown in Example 5 and thereby synergistic effects by any combination of tanshinone derivatives through AMPK activity.
The respective ingredients of tanshinone I, tanshinone IIA, cryptotanshinone and 15,16-dihydrotanshinone I were doubly or triply combined to prepare different compositions. AMPK activity of the prepared compositions and the AMPK activity of respective ingredients included in those compositions were compared to confirm synergistic effects. In addition, we have attempted to confirm AMPK activity with respect to changes in the combination ratio by varying the ratio between ingredients in the compositions, and to obtain synergistic effects of activity by any combination of tanshinone derivatives.

cardiac myocytes [1] = conditions: Planta Med. 2002, 68, 1103-1107; cited from earlier work
cardiac fibroblasts = conditions: Planta Med. 2002, 68, 1103-1107; cited from earlier work
hepatocytes = conditions: Planta Med. 2002, 68, 1077-1081; cited from earlier work
cardiac myocytes [2] = conditions: Biochemical Pharmacology 64, 745-750 (2002); cited from earlier work
mitochondria = conditions: Biochemical Pharmacology 65, 51-57, 2003; cited from earlier work

Compound: tanshinone I
- enhancement effect on AMPK activity by combinational use of two or more of these compounds (AMPK): significantly increased

Compound: Cc1cccc2c3c(ccc12)C(O)=C(C(C)CO)C(=O)C3=O (stereo not drawn) [tanshinone VI]
- hypertrophy of cardiac myocytes (cardiac myocytes [1]): attenuates hypertrophy of cardiac myocytes
- synthesis of collagen by cardiac fibroblasts (cardiac fibroblasts): inhibits synthesis of collagen by cardiac fibroblasts

Compound: Cc1coc2c1C(=O)C(=O)c1c-2ccc2c1CCCC2(C)C [tanshinone IIA]
- enhancement effect on AMPK activity by combinational use of two or more of these compounds (AMPK): significantly increased

Compound: Cc1cccc2c3c(ccc12)C(=O)C1=C(OCC1C)C3=O (stereo not drawn) [dihydroisotanshinone I]
- effect against menadione-induced cytotoxicity in hepatocytes (hepatocytes): hepatoprotective effects

Compound: C[C@H]1COC2=C1C(=O)C(=O)c1c2ccc2c1CCCC2(C)C [cryptotanshinone]
- enhancement effect on AMPK activity by combinational use of two or more of these compounds (AMPK): significantly increased

Compound: Cc1c(S(=O)(=O)O)oc2c1C(=O)C(=O)c1c-2ccc2c1CCCC2(C)C [tanshinone IIA sulfonate]
- hypertrophy of cardiac myocytes induced by angiotensin II (cardiac myocytes [2]): attenuates hypertrophy of cardiac myocytes induced by angiotensin II
- electron-transfer reaction in mitochondria (mitochondria): facilitates an electron-transfer reaction in mitochondria

Compound: 15,16-Dihydrotanshinone I
- enhancement effect on AMPK activity by combinational use of two or more of these compounds (AMPK): significantly increased
